Reference: publication PMC12274840 (The Journal of Biological Chemistry, 2025)
Converted amounts (≈) assume the structure as drawn.

Experiments:
Format in all cases: cell-based, Escherichia coli
Settings in all cases: antibiotic alone
[1] = test system: E. coli KA797 cells carrying pUK21 with TEM-1 Y105R
[2] = test system: E. coli KA797 cells carrying pUK21 with CTX-M-14 Y105G
[3] = test system: E. coli KA797 cells carrying pUK21 with TEM-1 Y105G
[4] = test system: E. coli KA797 cells carrying pUK21 with BlaC I105R
[5] = test system: E. coli KA797 cells carrying pUK21 with BlaC I105G

SMILES: CC1(C)S[C@@H]2[C@H](NC(=O)C(C(=O)O)c3ccccc3)C(=O)N2[C@H]1C(=O)O (some centres unmarked) [carbenicillin]
- MIC [1]: 4000 µg/mL (≈ 10.6 mM)
- MIC [2]: 1000 µg/mL (≈ 2.64 mM)
- MIC [3]: 16,000 μg/ml
- MIC [4]: 1600 µg/mL (≈ 4.23 mM)
- MIC [5]: 800 µg/mL (≈ 2.11 mM)
